The values that follow are results of earlier work, collected in US6900203B2, “Optically active fluorinated vasoconstrictors, methods for making them, and anesthetic formulations comprising them” (Polium Technologies, Inc., priority 2002, dated 2005).

Series [1] has as its system α2/β adrenergic receptors.
Series [2] deals with α1/β adrenergic receptors.
Another series deals with α1-receptors. The settings on record: read-out: Receptor affinity α1.
A further series addresses β2 (Homo sapiens, UniProt P07550). The settings on record: read-out: Receptor affinity β2.
The target in the next series is β1 (Homo sapiens, UniProt P08588). The settings on record: read-out: Receptor affinity β1.
A further series deals with α-receptors. The settings on record: order of magnitude.

Like-named read-outs stand apart in the source and are kept apart here.

β2, sequence (P07550 whole entry): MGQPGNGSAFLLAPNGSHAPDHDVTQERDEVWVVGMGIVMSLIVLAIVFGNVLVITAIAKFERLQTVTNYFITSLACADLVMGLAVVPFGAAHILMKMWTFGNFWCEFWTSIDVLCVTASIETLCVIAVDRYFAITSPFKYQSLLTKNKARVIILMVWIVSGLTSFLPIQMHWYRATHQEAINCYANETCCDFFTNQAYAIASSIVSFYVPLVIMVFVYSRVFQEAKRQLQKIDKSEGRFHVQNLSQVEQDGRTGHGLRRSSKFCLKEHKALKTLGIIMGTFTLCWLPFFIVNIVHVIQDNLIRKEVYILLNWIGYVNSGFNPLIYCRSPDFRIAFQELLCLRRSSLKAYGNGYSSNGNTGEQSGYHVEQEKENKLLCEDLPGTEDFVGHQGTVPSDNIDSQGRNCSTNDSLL
β1, sequence (P08588 whole entry): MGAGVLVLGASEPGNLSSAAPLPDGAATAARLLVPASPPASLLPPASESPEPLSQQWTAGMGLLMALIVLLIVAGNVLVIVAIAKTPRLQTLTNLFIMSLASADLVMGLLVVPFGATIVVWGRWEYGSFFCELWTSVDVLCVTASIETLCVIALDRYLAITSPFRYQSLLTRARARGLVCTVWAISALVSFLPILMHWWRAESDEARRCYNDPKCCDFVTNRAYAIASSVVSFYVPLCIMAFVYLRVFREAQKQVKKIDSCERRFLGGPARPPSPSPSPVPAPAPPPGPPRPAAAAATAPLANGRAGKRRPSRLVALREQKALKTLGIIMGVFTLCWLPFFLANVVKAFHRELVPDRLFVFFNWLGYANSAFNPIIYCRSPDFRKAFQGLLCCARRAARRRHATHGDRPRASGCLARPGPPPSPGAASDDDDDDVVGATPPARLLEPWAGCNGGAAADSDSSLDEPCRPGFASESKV

With `CNCC(O)c1cc(O)ccc1F` (stereo not shown) [6F-phenylephrine], in series [1], the α2/β selectivity is on record as 780 fold. Further, the α1/β selectivity in series [2] is on record as 86-140 fold.
For `CNC[C@H](O)c1ccc(O)c(O)c1F` [(R)-2F-epinephrine], the Ki at α1-receptors is approximately 25 µM; on β2 it was 0.11 ± 0.03 µM; on α2-receptors (read-out: Receptor affinity α2), 0.067 ± 0.003 µM; on β1, 0.56 ± 0.03 µM.
As to `CNC[C@H](O)c1cc(O)c(O)cc1F` [(R)-6F-epinephrine, 2-methylamino-1R-[(3,4-dihydroxy-6-fluoro)-phenyl]ethanol], the Ki was 2.5 ± 0.1 µM on α1-receptors, 38 ± 7 µM at β2, 0.013 ± 0.002 µM on α2-receptors (read-out: Receptor affinity α2) and approximately 100 µM on β1.
For the compound `CNC[C@H](O)c1ccc(O)c(O)c1` [(R)-epinephrine], the Ki on α2-receptors (order of magnitude, read-out: binding constant with respect to α2-receptors) was approximately 0.01 µM; on α2-receptors (read-out: Receptor affinity α2), 0.013 ± 0.002 µM.
Turning to `CNC[C@H](O)c1cccc(O)c1` [(R)-phenylephrine, 2-methylamino-1R-(3-hydroxyphenyl)ethanol], the α2/β selectivity in series [1] was 33 fold. The α1/β selectivity in series [2] is reported as 2-5 fold. Besides, the “binding constants with α-receptors” value at α-receptors was “on the order of several”.
`CNC[C@@H](O)c1ccc(O)c(O)c1F` [(S)-2F-epinephrine]: the Ki on α1-receptors was approximately 40 µM; on β2 it was approximately 25 µM; on α2-receptors (read-out: Receptor affinity α2), 0.053 ± 0.001 µM; on β1 it was approximately 150 µM.
In the case of `CNC[C@@H](O)c1cc(O)c(O)cc1F` [(S)-6F-epinephrine], the Ki at α1-receptors is approximately 70 µM; on β2, approximately 90 µM; on α2-receptors (read-out: Receptor affinity α2) it was 0.078 ± 0.001 µM; on β1, approximately 400 µM.
As for `CNC[C@@H](O)c1ccc(O)c(O)c1` [(S)-epinephrine], the values for the Ki at α1-receptors and on α2-receptors (read-out: Receptor affinity α2) were approximately 20 µM and 0.045 ± 0.003 µM, respectively.
